Values of other authors as cited in US12318376B2, “Compositions of a polyorthoester and an aprotic solvent” (Heron Therapeutics, Inc., priority 2013, dated 2025).

Conditions: printed in brackets under the miscibility class

Water Miscibility (amount in brackets)	SMILES
(8.3 g/100 ml)	CCOC(C)=O [ethyl acetate]

Same assay, conditions: solvent in water, room temperature (20-25° C.)

Water Miscibility	SMILES
poorly miscible	CCCCCCCC/C=C\CCCCCCCC(=O)OCC [ethyl oleate]
poorly miscible	O=C(OCc1ccccc1)c1ccccc1 [benzyl benzoate]
water miscible	COC(=O)C(C)O (stereo not drawn) [methyl lactate]
partially miscible	CCOC(C)=O [ethyl acetate]
poorly miscible	O=C1CCCN1C1CCCCC1 [N-cyclohexyl-2-pyrrolidone]
water miscible	COC(C)=O [methyl acetate]
poorly miscible	CCCCCCCCCCCCCC(=O)OC(C)C [isopropyl myristate]
water miscible	O=C1CCCCCO1 [ester-caprolactone]
water miscible	CCOC(=O)C(C)O (stereo not drawn) [ethyl lactate]
water miscible	CC1COC(=O)O1 (stereo not drawn) [4-methyl-1,3-diololan-2-one]
water miscible	CCN1CCCC1=O [n-ethyl-2-pyrrolidone]
water miscible	CN1CCCC1=O [N-methyl-2-pyrrolidone (NMP), N-methyl-2-pyrrolidone]
water miscible	C[S+](C)[O-] [dimethyl sulfoxide]

SMILES	Water Miscibility
C1CCOC1 [tetrahydrofuran]	water miscible
